Experimental data taken from patent US11559528B2, “BACE1 inhibition for the treatment of cancer” (The Cleveland Clinic Foundation, priority 2019, dated 2023).

Columns and labels:
[1] = test system: iPSC-derived M2 macrophages; test: Fluorescent phagocytosis screening assay, iPSC-derived M2 macrophages against glioma cells; assay type: cell-based, human; settings: for screen of drug libraries and known inhibitors for promoters of macrophage phagocytosis: hit: glioma cells and lung ADC cells
[2] = test system: H1002 and H146 lung cancer cells; test: Cell titer viability assay on lung cancer cells; assay type: cell-based, human; settings: indicated concentrations, 72 hours, n=3
Experimental: (A) Effects of BACE1 inhibitors on lung cancer cell proliferation. H1002 and H146 lung cancer cells were treated with the indicated concentrations of the BACE1 inhibitor AZD3293, MK-8931, AZD3839, or PF-06751979 (PF) for 72 hours. Cell viability was assessed by cell titer assay (n=3). (B-D) A preclinical trial of MK-8931 for lung cancer treatment in xenograft models. H1002 lung cancer cells (5×106) were transplanted into mouse right flank through subcutaneous injection to establish subcutaneous lung cancer xenografts. […] Tumors dissected from mice of each group were photographed (C) and weighed (D). […] Data are shown as mean SEM. p **<0.01, Student's t-test.

[3] = patients, Phase I to Phase III; cited from earlier work

Row | SMILES | screen of drug libraries and known inhibitors for promoters of macrophage phagocytosis: hit [1] | lung cancer cell proliferation (cell viability) [2] | tolerability / safety in AD clinical trials [3] | macrophage phagocytosis against cancer cells [1]
1 | NC1=N[C@@](c2cccc(-c3cncnc3)c2)(c2ccnc(C(F)F)c2)c2cccc(F)c21 [AZD3839] | hits | suppressed lung cancer cell proliferation |  | 
2 | Cn1cnc2c(F)c(Nc3ccc(Br)cc3Cl)c(C(=O)NOCCO)cc21 [AZD6244] | hits |  |  | 
3 | C[C@@]1(c2nc(NC(=O)c3ncc(C(F)(F)F)cc3Cl)ccc2F)CO[C@@](C)(C(F)(F)F)C(N)=N1 [CNP520] | hits |  | very safe for patients | promotes macrophage phagocytosis against cancer cells
4 | CS[C@@]1(C(=O)Nc2ccc3[nH]nc(-c4ccc(OC(C)C)nc4)c3c2)CCN(CC(=O)N2CC=C(c3ccc(-c4ncn(C)n4)cc3)CC2)C1 [MK-8353] | hits |  |  | 
5 | C[C@@]1(c2cc(NC(=O)c3ccc(C#N)cn3)ccc2F)C=CSC(N)=N1 [JNJ-54861911] | hits |  |  | 
6 | NC1=N[C@@]2(c3cc(NC(=O)c4cnc(C(F)F)cn4)ccc3F)CO[C@H](C(F)(F)F)[C@H]2CS1 [E2609] | hits |  |  | promotes macrophage phagocytosis against cancer cells
7 | CC#Cc1cncc(-c2ccc3c(c2)[C@@]2(N=C(C)C(N)=N2)[C@]2(CC[C@@H](OC)CC2)C3)c1 [AZD3293] | hits | suppressed lung cancer cell proliferation | very safe for patients | promotes macrophage phagocytosis against cancer cells
8 | C[C@H]1C[C@H]2CSC(N)=N[C@@]2(c2nc(NC(=O)c3ccc(OC(F)F)cn3)cs2)CO1 [PF-06751979] | hits | suppressed lung cancer cell proliferation |  | 
